Measurements as given in PubChem BioAssay (NCI).
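Interpolation was linear, between the two tested concentrations surrounding the appropriate level; five concentrations were tested over 48 hours in 96-well plates. GI50 marks 50% less growth. At the TGI there is no net growth.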

Columns and labels:
Test in all cases: NCI anticancer screen, dose series, 48 h
786-0 renal = tested on: 786-0 renal
A498 renal = tested on: A498 renal
A549 NSCLC = tested on: A549 NSCLC
ACHN renal = tested on: ACHN renal
BT-549 breast = tested on: BT-549 breast
CAKI-1 renal = tested on: CAKI-1 renal
CCRF-CEM leukemia = tested on: CCRF-CEM leukemia
COLO 205 colon = tested on: COLO 205 colon
DU-145 prostate = tested on: DU-145 prostate
EKVX NSCLC = tested on: EKVX NSCLC
HCC-2998 colon = tested on: HCC-2998 colon
HCT-116 colon = tested on: HCT-116 colon
HCT-15 colon = tested on: HCT-15 colon
HL-60(TB) leukemia = tested on: HL-60(TB) leukemia
HOP-62 NSCLC = tested on: HOP-62 NSCLC
HOP-92 NSCLC = tested on: HOP-92 NSCLC
HS 578T breast = tested on: HS 578T breast
HT29 colon = tested on: HT29 colon
IGROV1 ovarian = tested on: IGROV1 ovarian
K-562 leukemia = tested on: K-562 leukemia
KM12 colon = tested on: KM12 colon
LOX IMVI melanoma = tested on: LOX IMVI melanoma
M14 melanoma = tested on: M14 melanoma
MALME-3M melanoma = tested on: MALME-3M melanoma
MCF7 breast = tested on: MCF7 breast
MDA-MB-231 breast = tested on: MDA-MB-231 breast
MDA-MB-435 = tested on: MDA-MB-435
MDA-MB-468 breast = tested on: MDA-MB-468 breast
MOLT-4 leukemia = tested on: MOLT-4 leukemia
NCI-H226 lung = tested on: NCI-H226 lung
NCI-H23 lung = tested on: NCI-H23 lung
NCI-H460 lung = tested on: NCI-H460 lung
NCI-H522 lung = tested on: NCI-H522 lung
NCI/ADR-RES ovarian = tested on: NCI/ADR-RES ovarian
OVCAR-3 ovarian = tested on: OVCAR-3 ovarian
OVCAR-4 ovarian = tested on: OVCAR-4 ovarian
OVCAR-5 ovarian = tested on: OVCAR-5 ovarian
OVCAR-8 ovarian = tested on: OVCAR-8 ovarian
PC-3 prostate = tested on: PC-3 prostate
RPMI-8226 leukemia = tested on: RPMI-8226 leukemia
RXF 393 renal = tested on: RXF 393 renal
SF-268 CNS = tested on: SF-268 CNS
SF-295 CNS = tested on: SF-295 CNS
SF-539 CNS = tested on: SF-539 CNS
SK-MEL-2 melanoma = tested on: SK-MEL-2 melanoma
SK-MEL-28 melanoma = tested on: SK-MEL-28 melanoma
SK-MEL-5 melanoma = tested on: SK-MEL-5 melanoma
SK-OV-3 ovarian = tested on: SK-OV-3 ovarian
SN12C renal = tested on: SN12C renal
SNB-19 CNS = tested on: SNB-19 CNS
SNB-75 CNS = tested on: SNB-75 CNS
SR leukemia = tested on: SR leukemia
SW-620 colon = tested on: SW-620 colon
T-47D breast = tested on: T-47D breast
TK-10 renal = tested on: TK-10 renal
U251 CNS = tested on: U251 CNS
UACC-257 melanoma = tested on: UACC-257 melanoma
UACC-62 melanoma = tested on: UACC-62 melanoma
UO-31 renal = tested on: UO-31 renal

How did the GI50 (786-0 renal) turn out when `CC(=C(c1ccc(OCCN2CCCCC2)cc1)c1ccc(OCCN2CCCCC2)cc1)c1ccccc1` was run?
The GI50 was 3.39 µM.

And the TGI (786-0 renal)?
Its TGI is 6.91 µM.

What about the GI50 (A498 renal) of the same compound?
Its GI50 is over 21.8 µM.

And the TGI (A498 renal)?
Its TGI is over 21.8 µM.

And the GI50 (A549 NSCLC)?
Its GI50 is 5.91 µM.

What about the TGI (A549 NSCLC) of the same compound?
The TGI was over 21.8 µM.

And the GI50 (ACHN renal)?
The GI50 was 5.2 µM.

And the TGI (ACHN renal)?
The TGI was 17.2 µM.

And the GI50 (BT-549 breast)?
The GI50 was over 21.8 µM.

And the TGI (BT-549 breast)?
Its TGI is over 21.8 µM.

What about the GI50 (CAKI-1 renal) of the same compound?
Its GI50 is 5.01 µM.

What about the TGI (CAKI-1 renal) of the same compound?
Its TGI is over 21.8 µM.

What about the GI50 (CCRF-CEM leukemia) of the same compound?
The GI50 was 5.2 µM.

What about the TGI (CCRF-CEM leukemia) of the same compound?
Its TGI is 21.7 µM.

What about the GI50 (COLO 205 colon) of the same compound?
The GI50 was 3.53 µM.

And the TGI (COLO 205 colon)?
Its TGI is 7.61 µM.

And the GI50 (DU-145 prostate)?
Its GI50 is 12.4 µM.

And the TGI (DU-145 prostate)?
The TGI was over 21.8 µM.

And the GI50 (EKVX NSCLC)?
Its GI50 is over 21.8 µM.

And the TGI (EKVX NSCLC)?
Its TGI is over 21.8 µM.

What about the GI50 (HCC-2998 colon) of the same compound?
Its GI50 is 4.7 µM.

And the TGI (HCC-2998 colon)?
Its TGI is 21 µM.

And the GI50 (HCT-116 colon)?
The GI50 was 3.43 µM.

What about the TGI (HCT-116 colon) of the same compound?
Its TGI is 10.1 µM.

And the GI50 (HCT-15 colon)?
Its GI50 is 4.98 µM.

And the TGI (HCT-15 colon)?
The TGI was over 21.8 µM.

And the GI50 (HL-60(TB) leukemia)?
Its GI50 is 2.67 µM.

What about the TGI (HL-60(TB) leukemia) of the same compound?
The TGI was 7.09 µM.

And the GI50 (HOP-62 NSCLC)?
The GI50 was 6.45 µM.

And the TGI (HOP-62 NSCLC)?
The TGI was over 21.8 µM.

What about the GI50 (HOP-92 NSCLC) of the same compound?
Its GI50 is 5.01 µM.

And the TGI (HOP-92 NSCLC)?
The TGI was over 21.8 µM.

What about the GI50 (HS 578T breast) of the same compound?
Its GI50 is 3.33 µM.

And the TGI (HS 578T breast)?
The TGI was 10.9 µM.

What about the GI50 (HT29 colon) of the same compound?
Its GI50 is 3.77 µM.

What about the TGI (HT29 colon) of the same compound?
The TGI was 11.7 µM.

What about the GI50 (IGROV1 ovarian) of the same compound?
Its GI50 is 9.78 µM.

What about the TGI (IGROV1 ovarian) of the same compound?
Its TGI is over 21.8 µM.

What about the GI50 (K-562 leukemia) of the same compound?
Its GI50 is 3.26 µM.

And the TGI (K-562 leukemia)?
The TGI was over 21.8 µM.

What about the GI50 (KM12 colon) of the same compound?
The GI50 was 8.17 µM.

What about the TGI (KM12 colon) of the same compound?
The TGI was over 21.8 µM.

And the GI50 (LOX IMVI melanoma)?
The GI50 was 3.48 µM.

What about the TGI (LOX IMVI melanoma) of the same compound?
Its TGI is 6.59 µM.

What about the GI50 (M14 melanoma) of the same compound?
The GI50 was 3.95 µM.

And the TGI (M14 melanoma)?
The TGI was 8.32 µM.

And the GI50 (MALME-3M melanoma)?
Its GI50 is 3.38 µM.

What about the TGI (MALME-3M melanoma) of the same compound?
Its TGI is 6.31 µM.

What about the GI50 (MCF7 breast) of the same compound?
The GI50 was 0.625 µM.

What about the TGI (MCF7 breast) of the same compound?
Its TGI is 4.98 µM.

What about the GI50 (MDA-MB-231 breast) of the same compound?
The GI50 was 4 µM.

What about the TGI (MDA-MB-231 breast) of the same compound?
Its TGI is 9.17 µM.

What about the GI50 (MDA-MB-435) of the same compound?
Its GI50 is 3.25 µM.

And the TGI (MDA-MB-435)?
Its TGI is 6.88 µM.

And the GI50 (MDA-MB-468 breast)?
Its GI50 is 3.79 µM.

What about the TGI (MDA-MB-468 breast) of the same compound?
Its TGI is 9.45 µM.

What about the GI50 (MOLT-4 leukemia) of the same compound?
The GI50 was 4.15 µM.

What about the TGI (MOLT-4 leukemia) of the same compound?
Its TGI is 12.9 µM.

And the GI50 (NCI-H226 lung)?
The GI50 was over 21.8 µM.

What about the TGI (NCI-H226 lung) of the same compound?
The TGI was over 21.8 µM.

And the GI50 (NCI-H23 lung)?
The GI50 was 12.5 µM.

And the TGI (NCI-H23 lung)?
The TGI was over 21.8 µM.

And the GI50 (NCI-H460 lung)?
Its GI50 is 4.1 µM.

What about the TGI (NCI-H460 lung) of the same compound?
Its TGI is 9.98 µM.

And the GI50 (NCI-H522 lung)?
Its GI50 is 3.26 µM.

What about the TGI (NCI-H522 lung) of the same compound?
The TGI was 7.85 µM.

What about the GI50 (NCI/ADR-RES ovarian) of the same compound?
The GI50 was 12.1 µM.

And the TGI (NCI/ADR-RES ovarian)?
The TGI was over 21.8 µM.

What about the GI50 (OVCAR-3 ovarian) of the same compound?
Its GI50 is 3.84 µM.

And the TGI (OVCAR-3 ovarian)?
Its TGI is 17.2 µM.

And the GI50 (OVCAR-4 ovarian)?
Its GI50 is 7.66 µM.

And the TGI (OVCAR-4 ovarian)?
Its TGI is over 21.8 µM.

And the GI50 (OVCAR-5 ovarian)?
Its GI50 is 11.7 µM.

What about the TGI (OVCAR-5 ovarian) of the same compound?
The TGI was over 21.8 µM.

What about the GI50 (OVCAR-8 ovarian) of the same compound?
The GI50 was over 21.8 µM.

And the TGI (OVCAR-8 ovarian)?
Its TGI is over 21.8 µM.

What about the GI50 (PC-3 prostate) of the same compound?
Its GI50 is 8.19 µM.

And the TGI (PC-3 prostate)?
Its TGI is over 21.8 µM.

And the GI50 (RPMI-8226 leukemia)?
Its GI50 is 6.54 µM.

And the TGI (RPMI-8226 leukemia)?
The TGI was over 21.8 µM.

And the GI50 (RXF 393 renal)?
Its GI50 is 3.21 µM.

And the TGI (RXF 393 renal)?
Its TGI is 10.4 µM.

What about the GI50 (SF-268 CNS) of the same compound?
The GI50 was 5.56 µM.

And the TGI (SF-268 CNS)?
Its TGI is over 21.8 µM.

And the GI50 (SF-295 CNS)?
Its GI50 is 3.52 µM.

What about the TGI (SF-295 CNS) of the same compound?
The TGI was 7.17 µM.

What about the GI50 (SF-539 CNS) of the same compound?
Its GI50 is 3.39 µM.

And the TGI (SF-539 CNS)?
The TGI was 6.39 µM.

What about the GI50 (SK-MEL-2 melanoma) of the same compound?
Its GI50 is 3.85 µM.

And the TGI (SK-MEL-2 melanoma)?
The TGI was 7.72 µM.

What about the GI50 (SK-MEL-28 melanoma) of the same compound?
Its GI50 is 3.62 µM.

What about the TGI (SK-MEL-28 melanoma) of the same compound?
The TGI was 6.68 µM.

What about the GI50 (SK-MEL-5 melanoma) of the same compound?
The GI50 was 3.64 µM.

What about the TGI (SK-MEL-5 melanoma) of the same compound?
Its TGI is 6.87 µM.

And the GI50 (SK-OV-3 ovarian)?
The GI50 was over 21.8 µM.

What about the TGI (SK-OV-3 ovarian) of the same compound?
The TGI was over 21.8 µM.

What about the GI50 (SN12C renal) of the same compound?
The GI50 was over 21.8 µM.

What about the TGI (SN12C renal) of the same compound?
Its TGI is over 21.8 µM.

What about the GI50 (SNB-19 CNS) of the same compound?
Its GI50 is 6.88 µM.

What about the TGI (SNB-19 CNS) of the same compound?
Its TGI is over 21.8 µM.

What about the GI50 (SNB-75 CNS) of the same compound?
The GI50 was 3.79 µM.

What about the TGI (SNB-75 CNS) of the same compound?
The TGI was over 21.8 µM.

What about the GI50 (SR leukemia) of the same compound?
The GI50 was 3.68 µM.

What about the TGI (SR leukemia) of the same compound?
The TGI was 11.5 µM.

What about the GI50 (SW-620 colon) of the same compound?
The GI50 was 2.95 µM.

And the TGI (SW-620 colon)?
Its TGI is 6.86 µM.

And the GI50 (T-47D breast)?
Its GI50 is 2.55 µM.

What about the TGI (T-47D breast) of the same compound?
Its TGI is 6.6 µM.

What about the GI50 (TK-10 renal) of the same compound?
The GI50 was 16.7 µM.

What about the TGI (TK-10 renal) of the same compound?
Its TGI is over 21.8 µM.

And the GI50 (U251 CNS)?
The GI50 was 3.76 µM.

And the TGI (U251 CNS)?
The TGI was 8.51 µM.

What about the GI50 (UACC-257 melanoma) of the same compound?
The GI50 was 3.18 µM.

And the TGI (UACC-257 melanoma)?
Its TGI is 6.3 µM.

And the GI50 (UACC-62 melanoma)?
Its GI50 is 3.64 µM.

What about the TGI (UACC-62 melanoma) of the same compound?
Its TGI is 6.83 µM.

And the GI50 (UO-31 renal)?
Its GI50 is 3.82 µM.

And the TGI (UO-31 renal)?
The TGI was 10.4 µM.
